Reference: US20200040326A1, “METHOD FOR PROVIDING A DNA-ENCODED LIBRARY, DNA-ENCODED LIBRARY AND METHOD OF DECODING A DNA-ENCODED LIBRARY” (TU Dresden, priority 2018, published 2020)

Biological target: enzyme carbonic anhydrase II (Homo sapiens, UniProt P00918)
Details: substance as DNA conjugate within the DEL; primer pairs 1a/1b (whole library), 2a/2b (CBS), 3a/3b (Theo); small ΔCq reflects large enrichment

enrichment after selection (from ΔCq, difference in qPCR cycle before and after selection): not enriched
SMILES: Cn1cnc2c1c(=O)[nH]c(=O)n2C [Theo, theobromine]
